Data on two compounds can be found in patent publication US20140128352A1, “COMPOUNDS AND METHODS FOR MODULATING MITOCHONDRIAL METABOLISM AND REACTIVE OXYGEN SPECIES PRODUCTION” (Buck Institute for Research on Aging, priority 2012, published 2014).

“Also recorded” adds a separate entry of the source. Like-named read-outs stand apart in the source and are kept apart here.

The target in experiment [1] is T1, outer ubiquinone binding site of complex III (IIIQO) (Rattus norvegicus, UniProt P00159+P20788).
T1 construct: freshly isolated muscle mitochondria were assayed; from tissue; host or cells: rat skeletal muscle mitochondria (Wistar, Harlan Laboratories)
Nature of the experiment: High-throughput screen: ROS production from outer ubiquinone binding site of complex III (IIIQO). The settings on record: for IIIQO: Table 8. Type of experiment: biochemical.
Protocol: (§1) Skeletal muscle mitochondria were isolated from 5-8 week old female Wistar rats (Harlan Laboratories). Minced muscle was homogenized in buffer containing bacterial protease Type VIII prior to differential centrifugation to separate mitochondria from other tissue components. Unless otherwise stated, freshly isolated muscle mitochondria were assayed in buffer containing 120 mM KCl, 5 mM HEPES, 1 mM EGTA, 0.3% (w/v) bovine serum albumin. Where indicated, CaCl2 was added to yield a final free concentration of 250 nM calcium at pH 7.0 at 37° C.
(§2) Compounds (10 mM in DMSO) were randomly selected from a library of 24,000 compounds obtained from ChemBridge and curated by the lab of Robert Hughes at the Buck Institute. Master screening plates were prepared using a Biomek FX liquid handling workstation (Beckman) to transfer 1 μL of each compound into individual wells on 96-well storage plates (80 compounds per plate). Master plates were sealed with foil and stored at −80° C. Just prior to use, plates were brought to room temperature and diluted 300-fold with standard buffer (13.3X=33.3 μM). To monitor the performance of each assay throughout screening and to provide intra-plate normalization reference points, DMSO negative controls and known mitochondrial inhibitor positive controls were included on each Master compound plate.
(§3) Total amounts of superoxide and H2O2 production were determined fluorometrically as H2O2, without distinguishing between them, in the presence of exogenous superoxide dismutase (25 units/mL final), horseradish peroxidase (1 unit/mL final), and Amplex UltraRed (25 μM final) as described (Affourtit, C. et al. (2012) Measurement of proton leak and electron leak in isolated mitochondria. Methods Mol. Biol. 810: 165-82). Just prior to use, a bulk 3.3X solution was made in standard buffer and distributed into a 2 mL deep well 96-well transfer plate.
To assess the effects of a compound on ROS production from the outer ubiquinone binding site of complex III (IIIQO), Start Solution containing 5 mM succinate, 4 μM rotenone and 2.5 μM antimycin A was distributed into standard 96-well transfer plates. A Biomek FX workstation was programmed to dispense solutions into black 96-well assay plates. Solutions were dispensed to all assay plates in the following order: ROS Detection solution described in Example 3, Mitochondria solution described in Example 1 to a final concentration of 0.1 mg/ml, and Compound dilutions described in Example 2. Duplicate assay plates were made and each was initiated by the addition of 3.3X Start solution containing 5 mM succinate, 4 μM rotenone and 2.5 μM antimycin A. Plates were incubated in the dark at room temperature for 30-40 minutes before acquiring endpoint fluorescence using a Victor 3V plate reader (Perkin Elmer) equipped with 550/590 nm excitation/emission filters.
The fluorescence values in each well were scaled as the percent change from the intra-plate DMSO controls with the appropriate inhibitor positive controls defined as −100%. Following initial scaling, intra-plate normalized values were subjected to Tukey's two-way median polish to remove row and column dependent positional effects (Malo et al., 2006).

For experiment [2], the target named is T2, flavin binding site of complex I (IF) (Rattus norvegicus, UniProt Q5XIH3).
T2 construct: freshly isolated muscle mitochondria were assayed; from tissue; host or cells: rat skeletal muscle mitochondria (Wistar, Harlan Laboratories)
T2 sequence (Q5XIH3 21-464 limits assumed, one chain of several): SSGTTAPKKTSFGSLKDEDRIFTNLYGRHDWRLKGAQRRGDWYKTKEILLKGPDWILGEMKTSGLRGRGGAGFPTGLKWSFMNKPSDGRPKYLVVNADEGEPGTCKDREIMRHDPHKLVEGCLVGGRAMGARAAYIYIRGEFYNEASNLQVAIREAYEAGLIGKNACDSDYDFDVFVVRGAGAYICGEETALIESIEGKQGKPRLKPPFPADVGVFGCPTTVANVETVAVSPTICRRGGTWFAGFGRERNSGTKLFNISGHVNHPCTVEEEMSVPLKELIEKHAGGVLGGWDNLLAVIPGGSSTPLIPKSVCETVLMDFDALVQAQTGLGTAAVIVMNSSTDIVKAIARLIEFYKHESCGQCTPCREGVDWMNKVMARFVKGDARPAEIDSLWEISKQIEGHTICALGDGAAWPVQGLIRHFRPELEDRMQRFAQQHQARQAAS
Nature of the experiment: High-throughput screen: ROS production from flavin binding site of complex I (IF). The class given is biochemical.

In experiment [3] the test system is ubiquinone binding site of complex I (IQ). Nature of the experiment: High-throughput screen: ROS production from ubiquinone binding site of complex I (IQ), isolated skeletal muscle mitochondria. The class given is biochemical, rat. Conditions: percent change in ROS from DMSO controls.
Experiment [4] deals with mitochondrial membrane potential (ΔΨm). The experiment is described as follows: Membrane potential (ΔΨm) counterscreen with TMRM. The settings on record: malate, nigericin.
For experiment [5] the test system is unchanged. Nature of the experiment: Retest ΔΨm assays (different substrates, with and without nigericin). Type of experiment: biochemical, rat. Conditions: various substrates. As to the method: The five core ROS assays and single ΔΨm assay were carried out as in the initial high-throughput screen. In addition, several assays were included to help validate the specificity of the compounds for a given site of production. […] The use of different substrates was designed to reveal compounds that disrupt mitochondrial function in a substrate specific manner. […] Most frequently, these changes involved the use of different substrates to supply electrons from an alternative entry point in the chain. If a site of ROS production is being targeted selectively by a compound, then in many cases the supply of electrons should not influence the effectiveness of this compound at suppressing ROS production. […] Candidate compounds that remained site-selective following robotics assisted retesting were subsequently tested for effects on ROS production and ΔΨm with a Varian Cary Eclipse fluorimeter (excitation 550 nm, emission at 590 nm). This experimental format allows kinetic measurements of ROS production and ΔΨm with more accurate temperature control, sample stirring, and background correction. […] Conditions were generally as described for the various microplate assays with the following exceptions: HRP was increased to 5 units/mL, Amplex UltraRed was increased to 50 μM, temperature was always 37° C., samples were continuously stirred, and baseline rates of fluorescence change in the absence of substrate were acquired prior to their addition. Example protocols for cuvette based measurement of site IQ and site IIIQo ROS production are described in Affourtit et al., 2012. […] Biochim. Biophys. Acta. 1777(5): 397-403. An additional advantage of the kinetic cuvette based assays was the ability to perform inline additions to monitor the relative effect of a test compound against multiple conditions in the same cuvette. Therefore, the selectivity of a compound for one site of ROS production can be monitored by adding substrates and select known inhibitors in defined sequences to alternately provide and trap electrons at various sites in the chain. […]

Experiment [6] deals with T3, succinate dehydrogenase/complex II (SDH) (Rattus norvegicus, UniProt P21913+Q641Z9+Q6PCT8+Q920L2).
T3 construct: freshly isolated muscle mitochondria were assayed; from tissue; host or cells: rat skeletal muscle mitochondria (Wistar, Harlan Laboratories)
T3 sequence (Q920L2 35-656): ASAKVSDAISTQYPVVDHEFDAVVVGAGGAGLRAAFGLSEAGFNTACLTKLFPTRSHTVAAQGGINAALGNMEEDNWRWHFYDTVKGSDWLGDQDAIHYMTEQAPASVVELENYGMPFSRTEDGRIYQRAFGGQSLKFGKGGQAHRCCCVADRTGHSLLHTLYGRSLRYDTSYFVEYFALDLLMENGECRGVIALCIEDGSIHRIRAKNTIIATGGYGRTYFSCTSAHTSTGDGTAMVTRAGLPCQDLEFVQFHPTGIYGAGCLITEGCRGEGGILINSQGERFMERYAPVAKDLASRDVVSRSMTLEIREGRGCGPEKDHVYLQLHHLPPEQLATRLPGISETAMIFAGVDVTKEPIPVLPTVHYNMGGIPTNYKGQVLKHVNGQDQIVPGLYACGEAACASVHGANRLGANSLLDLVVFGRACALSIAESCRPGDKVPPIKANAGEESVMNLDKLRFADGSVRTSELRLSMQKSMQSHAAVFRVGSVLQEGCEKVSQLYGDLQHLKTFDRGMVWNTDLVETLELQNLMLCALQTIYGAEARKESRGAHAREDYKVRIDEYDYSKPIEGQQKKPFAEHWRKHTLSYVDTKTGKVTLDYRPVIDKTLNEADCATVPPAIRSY
T3 sequence (P21913 31-282): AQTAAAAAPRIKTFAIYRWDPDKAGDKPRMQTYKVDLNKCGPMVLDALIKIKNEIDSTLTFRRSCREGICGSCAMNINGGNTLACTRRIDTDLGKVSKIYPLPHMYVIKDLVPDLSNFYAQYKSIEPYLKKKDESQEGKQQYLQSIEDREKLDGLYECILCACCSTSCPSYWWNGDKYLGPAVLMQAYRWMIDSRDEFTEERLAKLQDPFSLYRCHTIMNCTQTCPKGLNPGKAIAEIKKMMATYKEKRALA
T3 sequence (Q641Z9 30-169 limits assumed): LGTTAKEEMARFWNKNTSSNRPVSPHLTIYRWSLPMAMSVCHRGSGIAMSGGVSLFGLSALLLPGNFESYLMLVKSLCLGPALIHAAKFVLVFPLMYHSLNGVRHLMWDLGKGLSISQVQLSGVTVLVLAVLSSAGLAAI
T3 sequence (Q6PCT8 57-159): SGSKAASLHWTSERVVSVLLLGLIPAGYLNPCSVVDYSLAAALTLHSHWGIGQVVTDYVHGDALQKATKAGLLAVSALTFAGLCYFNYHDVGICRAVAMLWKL
The experiment is described as follows: High-throughput screen: ROS production from succinate dehydrogenase/complex II (SDH). The class given is biochemical. The settings on record: percent change in ROS from DMSO controls; for inhibition at 2.5 µM: Table 7.

Experiment [7] has as its system mitochondrial respiration. Nature of the experiment: Mitochondrial respiration, Seahorse XF24. The class given is biochemical, rat. Conditions: complex I, complex II or glycerol phosphate substrates; states 2, 3, 4. As to the method: Measurements of ΔΨm described in the previous examples were made under “resting” conditions in which substrates were present but ΔΨm was not coupled to ATP (energy) production by mitochondria. To test the effect of candidate compounds on mitochondrial bioenergetics under energy producing conditions, respiratory coupling parameters were measured in isolated mitochondria in microplate format using a Seahorse XF 24 analyzer (Rogers, G. et al. (2011) High Throughput Microplate Respiratory Measurements Using Minimal Quantities of Isolated Mitochondria. PLoS One. 6(7): e21746). […] ATP synthesis was terminated by injection of oligomycin (0.5 μg/mL) and leak-dependent respiration was measured (state 4o). Finally, the complex III inhibitors antimycin A (2.5 uM) and myxothiazol (2 μM) were injected to terminate respiration. Respiratory profiles were evaluated for signs of inhibition (decreased states 2, 3, or 4o) or uncoupling (increased states 2 or 4o) by candidate compounds. Seahorse XF experiments were performed in a mannitol-sucrose based buffer as described in Rogers et al. 2011. For respiration experiments driven by glycerol phosphate, this buffer was supplemented with CaCl2 to a final free concentration of 250 nM.

Experiment [8] addresses T4, glycerol-3-phosphate dehydrogenase (GPDH) (Rattus norvegicus, UniProt P35571).
T4 construct: The activity of GPDH in intact mitochondria (0.3 mg/mL) was measured; from tissue; host or cells: rat skeletal muscle mitochondria (Wistar, Harlan Laboratories)
T4 sequence (P35571 43-727): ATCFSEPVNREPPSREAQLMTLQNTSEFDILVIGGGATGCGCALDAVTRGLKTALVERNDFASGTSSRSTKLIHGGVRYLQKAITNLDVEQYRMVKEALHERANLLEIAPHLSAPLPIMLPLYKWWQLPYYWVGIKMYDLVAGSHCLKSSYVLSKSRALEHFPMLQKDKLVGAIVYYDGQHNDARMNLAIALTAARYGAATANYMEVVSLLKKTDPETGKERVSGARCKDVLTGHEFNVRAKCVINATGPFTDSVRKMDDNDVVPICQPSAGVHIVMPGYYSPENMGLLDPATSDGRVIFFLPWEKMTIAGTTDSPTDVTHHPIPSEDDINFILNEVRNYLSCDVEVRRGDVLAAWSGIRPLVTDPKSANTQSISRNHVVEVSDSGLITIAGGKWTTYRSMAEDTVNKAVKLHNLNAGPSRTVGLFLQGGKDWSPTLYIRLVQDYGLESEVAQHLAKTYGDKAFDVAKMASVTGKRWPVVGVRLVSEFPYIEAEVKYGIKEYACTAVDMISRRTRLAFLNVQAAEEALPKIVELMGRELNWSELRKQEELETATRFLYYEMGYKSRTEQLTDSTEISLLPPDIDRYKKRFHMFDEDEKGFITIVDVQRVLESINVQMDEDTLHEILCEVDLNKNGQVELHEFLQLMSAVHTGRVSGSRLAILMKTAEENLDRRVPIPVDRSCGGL
The experiment is described as follows: High-throughput screen: ROS production from glycerol-3-phosphate dehydrogenase (GPDH). Type of experiment: biochemical. More on the design: inhibition: dose or concentration left out as unconfirmed. The settings on record: percent change in ROS from DMSO controls; for inhibition: Table 7.
Protocol: as §1, §2, §3
To assess the effects of a compound on ROS production from glycerol-3-phosphate dehydrogenase (GPDH), Start Solution containing 25 mM glycerol phosphate, 4 μM rotenone, 2.5 μM antimycin A, 1 mM malonate, 2 μM myxothiazol was distributed into standard 96-well transfer plates. A Biomek FX workstation was programmed to dispense solutions into black 96-well assay plates. Solutions were dispensed to all assay plates in the following order: ROS Detection solution described in Example 3, Mitochondria solution described in Example 1 to a final concentration of 0.2 mg/ml, and Compound dilutions described in Example 2. Duplicate assay plates were made and each was initiated by the addition of 3.3X Start solution containing 25 mM glycerol phosphate, 4 μM rotenone, 2.5 μM antimycin A, 1 mM malonate, 2 μM myxothiazol. Plates were incubated in the dark at room temperature for 30-40 minutes before acquiring endpoint fluorescence using a Victor 3V plate reader (Perkin Elmer) equipped with 550/590 nm excitation/emission filters.
The fluorescence values in each well were scaled as the percent change from the intra-plate DMSO controls. […] Following initial scaling, intra-plate normalized values were subjected to Tukey's two-way median polish to remove row and column dependent positional effects (Malo et al., 2006).

The mark [9] stands for this setting: Table 7, percent change in ROS from DMSO controls, read-out: IIIQO.
[10] abbreviates: percent change in ROS from DMSO controls.
[11] abbreviates: Table 9, percent change in ROS from DMSO controls, read-out: IIIQo.
Where [12] appears, read: Table 7, percent change in ROS from DMSO controls, read-out: IF.
Setting [13] is: Table 8, percent change in ROS from DMSO controls.
The mark [14] stands for this setting: Table 9, percent change in ROS from DMSO controls.

Regarding `Cc1ccc(C)c(CN(CCCN(C)C)CCCN(C)C)c1` [Compound 32], the inhibition at 2.5 µM in experiment [1] (setting [9]) is -2.5%; in experiment [1] (setting [11]) it was -2.5%; in experiment [2] (Table 3, 5 mM glutamate, 5 mM malate, 4 μM rotenone, compounds 2.5 μM, percent change from DMSO, positive control −100%, read-out: % Reduction in ROS production (IF)) it was 28.8%; in experiment [2] (setting [12]), 28.8%; in experiment [6], 6.8%. Further, in experiment [1] (setting [10]), the IIIQO came to 2.5. The IF in experiment [2] (setting [13]) and in experiment [2] (setting [14]) was −28.8 in each case. Further, the IQ in experiment [3] (Table 7), in experiment [3] (Table 8) and in experiment [3] (Table 9) was −0.6 in each case. The ΔΨm is on record as −0.2 in experiment [4] (Table 8, glutamate) and −0.2 in experiment [4] (Table 9, glutamate). Also, in experiment [5], the “effect on ΔΨm” value is “without any significant effects on membrane potential”. Further, the SDH in experiment [6] (Table 8) and in experiment [6] (Table 9) was −6.8 throughout. The “effect on mitochondrial respiration” value in experiment [7] was “increases ADP-stimulated respiration specifically with complex I substrates; also recorded: significantly increased state 3 respiration specifically with CI substrates”. In addition, in experiment [8], the inhibition was -0.2%. Besides, the GPDH in experiment [8] (Table 8) and in experiment [8] (Table 9) was 0.2 throughout.
For `COc1ccc(Cl)cc1N(Cc1ccccc1)Cc1ccccc1` [Compound 34], the inhibition at 2.5 µM in experiment [1] (Table 4, 5 mM succinate, 4 μM rotenone, 2.5 μM antimycin A, compounds 2.5 μM, percent change from DMSO, read-out: % Reduction in ROS production (IIIQO)) was 49.4%; in experiment [1] (setting [9]), 49.4%; in experiment [1] (setting [11]) it was 49.4%; in experiment [2] (setting [12]), -5.6%; in experiment [6], -3.9%. In addition, the IIIQO in experiment [1] (setting [10]) is listed as −49.4. Moreover, the IF in experiment [2] (setting [13]) and in experiment [2] (setting [14]) was 5.6 throughout. The IQ in experiment [3] (Table 7), in experiment [3] (Table 8) and in experiment [3] (Table 9) was 4.0 in each case. Also, the ΔΨm in experiment [4] (Table 8, glutamate) is reported as 3.4; in experiment [4] (Table 9, glutamate) it was 3.4. In addition, in experiment [5], the “effect on ΔΨm” value was “a consistent increase in ΔΨm was observed independent of both substrate and ΔpH at 8 μM; also recorded: increases ΔΨm at 8 μM but collapses ΔΨm above this concentration”. The SDH in experiment [6] (Table 8) and in experiment [6] (Table 9) was 3.9 throughout. Also, the inhibition in experiment [8] was determined as 4%. In addition, the GPDH in experiment [8] (Table 8) and in experiment [8] (Table 9) was −4.0 each time.
